Laboratory results from US9333191B2, “Mast cell stabilizers to prevent or treat laminitis” (WILLOWCROFT PHARM INC., priority 2004, dated 2016).
Entries after “also recorded” stand apart in the source; their conditions may differ. Structures can show the parent of a compound that is named as a salt.

Legend:
Bovine Laminitis = type: in vivo, Holstein calves
Text: To test the effectiveness of nedocromil sodium to prevent laminitis in cattle, 4 Holstein calves weighing between 325 and 350 pounds were selected for the study and treated as shown in Table 11.
Starting with day one through day four, and continuing day six through day seven, calves 1 and 2 received Nedocromil sodium pretreatment (1.5 grams infused through the jugular vein) while calves 3 and 4 received no treatment. On each of days one through four and days six through seven, blood samples were obtained from all four calves. No treatments were administered on days eight through ten. On day eleven, calves 1 and 2 were administered 2 grams of Nedocromil sodium. Shortly thereafter, 3.5 pounds of corn starch and 1.5 pounds of sugar mixed in water along with 6×10^11 lactic acid producing and histamine producing organisms were administered to all four calves by releasing the mixture into the rumen of each animal. The process of administering the carbohydrate plus lactic acid producing and histamine producing organisms is known to induce acidosis in cattle.
The calves' behavior was observed, blood samples taken, and temperatures measured over the next 72 hours.

[1] = tested on: Rattus norvegicus basophilic leukemia cells; test: Lactic acid-stimulated histamine release from basophilic leukemia cells (GC-MS); type: cell-based
Description: The immortal cell culture line of Rattus norvegicus basophilic leukemia cells was subcultured and incubated at 37° C. overnight. […] After incubation, 50 μL of the supernatant was removed from the cells and stored at −80° C. or derivatized for GC-MS analysis.
The supernatant was mixed with 135 μl of an acetone reaction solution (ethanol, triethylamine, and 9-methylanthracene) in a 0.5 ml microtube. After mixing for 10 seconds, 55 μl of a chloroform derivatization solution containing […] ethylchloroformate was added and mixed for an additional 10 seconds. Then, 350 μL purified water was added and the two phases allowed to separate for 60 seconds. The organic phase was aspirated and placed into a 2 mL autosampler amber vial with glass inserts and dried with anhydrous sodium sulfate before being capped with GC vial snap caps.
The organic phase samples were dried and analyzed on an Agilent GC/MS 6890/5975C system with MS Chem Station software. Gas chromatography was carried out using a fused silica DB-WAX precolumn (0.2 m×0.25 mm, dF=0.25 μm), and a fused silica DB-WAX separation column (4 m×0.25 mm, dF=0.25 μm). Ultra high purity He was used as the carrier gas.
The GC parameters were set as follows: injection time was set to 5 μl using the splitless mode. After 120 seconds the split valve was opened with a 40 mL/minute split flow and front inlet temperature was held at 150° C. The oven temperature was ramped, starting at 60° C. for 2 minutes then increased at 50° C./minute to 160° C., then increased at 20° C./minute to 260° C. and held for 2.5 minutes. The MS detector was maintained at 300° C., with a solvent delay of 7 minutes, ion m/z 192 at 7.0-8.7 minutes, dwell time 100 ms, low-mass resolution; ion m/z 166, m/z 154 at 8.7-11.5 minutes, dwell time per ion 100 ms, low-mass resolution. […]

Ovine Laminitis = test: Histological evaluation of treatment in an acute model of ovine laminitis (lactic acid infusion + Compound 48/80); type: in vivo; conditions: Group 2: Nedocromil sodium (42 mg/kg) + lactic acid infusion + Compound 48/80 (1 mg/kg); anesthetized sheep; hematoxylin and eosin sections
Description: Laminitis can be induced in vivo through systemic acidosis. This study initiated laminitis in anesthetized sheep by inducing acidosis for the purpose of measuring the level of inflammation in the hoof vascular bed associated with initiation of laminitis. Adult Suffolk sheep (at least 6 months old) weighing at least 60 kg were obtained for the study. Animals were housed and research procedures were performed according to the standards provided in the Guide for the Care and Use of Laboratory Animals, 7th Edition, Revised 1996, National Academy Press, Washington, DC. During acclimation, sheep were pasture-housed with access to feed, water, and shelter. Sheep were fed a standard diet of hay and alfalfa in addition to pasture feed. One day prior to surgery, each animal was transferred to an indoor facility with single animal runs. […] The runs had automatic watering devices and animals were fed in steel feeders. Animals were acclimated for a minimum of one day prior to surgery. Sheep were fasted approximately 16 hours overnight on the day prior to surgery. Two sheep served as terminal controls after prolonged infusion of lactic acid and the mast cell activator 48/80. Systemic blood pH was lowered to approximately […], the animals euthanized, and the hooves observed histopathologically. […]

SMILES: CCCc1c2oc(C(=O)O)cc(=O)c2cc2c(=O)cc(C(=O)O)n(CC)c12 [Nedocromil sodium, disodium salt of 9-ethyl-6,9-dihydro-4,6-dioxo-10-propyl-4H-pyrano[3,2-g]-quinoline-2,8-dicarboxylic acid]
- Toxicity and/or side effects (Bovine Laminitis; bovine, in vivo): lack of toxicity and/or side effects
- Protection from lactic acidosis (Bovine Laminitis; calves 1 and 2, nedocromil sodium 1.5 g via jugular vein on days 1-4 and 6-7, 2 g on day 11 before carbohydrate mixture, observed 72 hours): protected from lactic acidosis
- Histamine Levels ([1]; Lactic acid + 1 μl nedocromil sodium): 15.810
- Histamine Levels ([1]; Lactic acid + 2 μl nedocromil sodium): 14.470
- Inhibition of histamine release ([1]; lactic acid-stimulated cells, increasing levels of nedocromil sodium): effective in inhibiting histamine release
- Findings (histology of hoof sections, inflammation) (Ovine Laminitis): No inflammation was observed; also recorded: effectively reduced short-term inflammation; also recorded: No significant findings
